Marks after values point to notes of the source that are not given here.
How the values were obtained:
HepG2 cells [1] = assay: In vitro mammalian chromosome aberration test on HepG2; assay type: cell-based, human
Protocol: HepG2 and VH10 cells were seeded into Petri dishes (Ø = 60 mm; HepG2 inoculum of 1 × 10^6 cells/dish and VH10 inoculum of 3.8 × 10^5 cells/dish) for 2 h. […] Three hours before the end of the cultivation, colchicine (0.75 µg/mL) was added. Before karyological processing, the cells were counted. Slides were prepared by the standard air-drying method and were stained with 2% aqueos Giemsa-Romanowski solution for 10 min.
(§1) Chromosome aberrations were evaluated by a microscopic examination. For each sample, 100 metaphases were analyzed. We focused on the following structural aberrations; breaks, chromatid, and iso-chromatid, and exchanges, including dicentrics, rings, tri-radials and quadri-radials. The results were evaluated statistically on the basis of the difference between two relative values. The percentage of aberrant metaphases and the total number of chromosome aberrations was compared to solvent control (SC), or clastogenic effect, and positive control (PC), or anticlastogenic effect. Since the genetic significance of gaps is not clearly understood, they were not included in the assessment of chromosomal damage and thus were not evaluated statistically.

VH10 cells = assay: In vitro mammalian chromosome aberration test on VH10; assay type: cell-based, human; conditions: for Number of Aberrant Metaphases / Number of Chromosome Aberrations, Chromatid b/f / Number of Chromosome Aberrations, Chromatid g / Number of Chromosome Aberrations, Exchange qr / Number of Chromosome Aberrations, Exchange tr / Number of Chromosome Aberrations, Isochromatid b/f / Total Number of CA / Number of Chromosome Aberrations, Exchange dic: 100 metaphases
Protocol: HepG2 and VH10 cells were seeded into Petri dishes (Ø = 60 mm; HepG2 inoculum of 1 × 10^6 cells/dish and VH10 inoculum of 3.8 × 10^5 cells/dish) for 2 h. Then, HF non-clastogenic concentrations (0.75 or 1.5 µM) were added and the cultures were incubated for 24 h. These concentrations of HF were chosen based on preliminary experiments (range-finding tests). Afterwards the medium was replaced with fresh medium alone or with fresh medium containing mutagens B(a)P (1.7 μM for HepG2 cells) or cisPt (0.5 μM for HepG2 cells and 0.75 μM for VH10 cells), and the HepG2 cells were cultivated further for 42 h and VH10 cells for 36 h, which approximately corresponds to 1.3 cell cycles of HepG2 and VH10 cells. Three hours before the end of the cultivation, colchicine (0.75 µg/mL) was added. Before karyological processing, the cells were counted. Slides were prepared by the standard air-drying method and were stained with 2% aqueos Giemsa-Romanowski solution for 10 min.
as §1

HepG2 cells [2] = conditions: read-out: IC50 (cell survival, MTT), 42 h treatment
Protocol: Thereafter, the medium was removed, and replaced by 200 µL of DMSO. The absorbance was measured at 540 and 690 nm using an xMarkTM Microplate Spectrophotometer (Bio-Rad Laboratories, Inc., Berkeley, CA, USA).

S. typhimurium TA100 = conditions: HF 0.075–2 µg/plate + sodium azide 50 µg/plate; without S9
Protocol: (§2) The Ames assay was conducted according to the method modified by Maron and Ames. In the Ames test, three bacterial strains of S. typhimurium (TA97, TA98, and TA100) were used. These strains are deficient in histidine and biotin, and, at the same time, they are deficient in excision repair. Prior to each experiment, the quality of each bacterial strain was checked similarly, as described by Berg et al.. The assay was carried out in sterile test tubes containing 100 µL (approximately 1.10^8 cells/mL) of overnight bacterial culture (overnight cultivated in 50 mL of LB medium) and 2.5 mL of the top-agar (with traces of histidine and biotin). In the case of metabolic activation, S9 mix was used to activate a promutagen 2-aminofluorene (50 µg/plate, Serva, Heidelberg, Germany). […] As positive controls (PC), the following diagnostic/direct mutagens were used: 9-aminoacridine (50 µg/plate, Serva, Heidelberg, Germany) for TA97; 4-nitroquinoline-1-oxide (20 µg/plate, Serva, Heidelberg, Germany) for TA98; and sodium azide (50 µg/plate, Serva, Heidelberg, Germany) for TA100. […] After 48 h of cultivation at 37 °C, his^+ revertants were counted. All experiments were conducted in triplicate. The data obtained were then analyzed using Student’s t-test.

S. typhimurium TA98 = conditions: all HF concentrations (0.075–2 µg/plate) + 4-NQO 20 µg/plate; without S9
Protocol: as §2

[3] = test system: Salmonella typhimurium TA97; conditions: HF 0.075–2 µg/plate + 9-aminoacridine 50 µg/plate; without S9
Protocol: as §2

human lymphocytes = conditions: HF 0.02–1 µM pretreatment, then zeocin 4.5 µM
Protocol: In the alkaline comet assay human lymphocytes were used. They were isolated from peripheral blood obtained by the finger prick method. To 1 mL of ice cold 1× PBS, 40 μL of peripheral blood was added and allowed to stand on ice for 30 min. Lymphocytes were separated from whole blood samples by standard centrifugation with 100 μL of the Histopaque medium (Sigma-Aldrich). After the centrifugation, 200 μL of isolated cells were resuspended in 1 mL of 1× PBS buffer and re-centrifuged.
This assay was selected for detecting the potential antigenotoxic effect of HF towards zeocin on the human lymphocytes. […] Briefly, human lymphocytes were suspended in 1% low melting point agarose (LMP) in PBS and placed on slides pre-coated with 1% normal melting point agarose (NMP). Slides with embedded lymphocytes were incubated for 1 h in HF solution (0.02; 0.05; 0.2; 1 µM). […] Afterwards, the zeocin solution was rinsed off with PBS. […] For the negative control, cells were left untreated in PBS for 1 h. […] Finally, the slides were stained with 20 µg/mL of ethidium bromide (Sigma-Aldrich, Bratislava, Slovakia), and, in each sample, 100 random nucleoids were scored at magnification 400× using a fluorescence microscope Olympus BX 51. The DNA damage was evaluated using the Comet visual computer software. DNA damage was expressed as the percentage of DNA in the tail (% tail DNA) [55]. […]

[4] = cisPt 0.5 µM (positive control), 100 metaphases
[5] = cisPt 0.75 µM (positive control)
[6] = HF 0.75 µM pretreatment 24 h + cisPt 0.5 µM, 100 metaphases
[7] = HF 0.75 µM pretreatment + B(a)P 1.7 µM, 100 metaphases
[8] = HF 1.5 µM pretreatment 24 h + cisPt 0.5 µM, 100 metaphases
[9] = HF 1.5 µM pretreatment + B(a)P 1.7 µM, 100 metaphases
[10] = HF 0.75 µM pretreatment 24 h + cisPt 0.75 µM
[11] = HF 1.5 µM pretreatment 24 h + cisPt 0.75 µM

## N.N.[Cl][Pt][Cl] [cisPt, cisplatinum(II)diamine dichloride, reference compound]
HepG2 cells [1]; [4]
  Number of Aberrant Metaphases: 38 ***
  Number of Chromosome Aberrations, Chromatid b/f: 36
  Number of Chromosome Aberrations, Chromatid g: 2
  Number of Chromosome Aberrations, Exchange dic: 2
  Number of Chromosome Aberrations, Exchange qr: 1
  Number of Chromosome Aberrations, Isochromatid b/f: 8
  Total Number of CA: 47 ***
VH10 cells; [5]
  Number of Aberrant Metaphases: 33 ***
  Number of Chromosome Aberrations, Chromatid b/f: 26
  Number of Chromosome Aberrations, Chromatid g: 2
  Number of Chromosome Aberrations, Exchange qr: 4
  Number of Chromosome Aberrations, Exchange tr: 5
  Number of Chromosome Aberrations, Isochromatid b/f: 9
  Total Number of CA: 44 ***

## Hyperforin [HF]
HepG2 cells [2]
  IC50: 19.9 µM
S. typhimurium TA100
  antimutagenic effect: not observed
S. typhimurium TA98
  number of his+ revertants vs positive control: significant decrease
[3]
  number of his+ revertants vs positive control: decrease
HepG2 cells [1]; [6]
  Number of Aberrant Metaphases: 10 *^,###
  Number of Chromosome Aberrations, Chromatid b/f: 5
  Number of Chromosome Aberrations, Chromatid g: 2
  Number of Chromosome Aberrations, Exchange dic: 2
  Number of Chromosome Aberrations, Isochromatid b/f: 4
  Total Number of CA: 11 *^,###
HepG2 cells [1]; [7]
  Number of Aberrant Metaphases: 8 ^###
  Number of Chromosome Aberrations, Chromatid b/f: 7
  Number of Chromosome Aberrations, Chromatid g: 1
  Number of Chromosome Aberrations, Isochromatid b/f: 1
  Total Number of CA: 8 ^###
HepG2 cells [1]; [8]
  Number of Aberrant Metaphases: 14 **^,###
  Number of Chromosome Aberrations, Chromatid b/f: 10
  Number of Chromosome Aberrations, Chromatid g: 2
  Number of Chromosome Aberrations, Exchange dic: 1
  Number of Chromosome Aberrations, Isochromatid b/f: 3
  Total Number of CA: 14 **^,###
HepG2 cells [1]; [9]
  Number of Aberrant Metaphases: 8 ^###
  Number of Chromosome Aberrations, Chromatid b/f: 8
  Number of Chromosome Aberrations, Chromatid g: 1
  Number of Chromosome Aberrations, Exchange dic: 1
  Total Number of CA: 9 ^###
HepG2 cells [1]; HF 0.75 and 1.5 µM pretreatment 24 h, then cisPt 0.5 µM
  amount of aberrant metaphases and chromosome aberrations: significant decrease
VH10 cells; [10]
  Number of Aberrant Metaphases: 12 **^,###
  Number of Chromosome Aberrations, Chromatid b/f: 8
  Number of Chromosome Aberrations, Chromatid g: 1
  Number of Chromosome Aberrations, Exchange dic: 1
  Number of Chromosome Aberrations, Exchange qr: 1
  Number of Chromosome Aberrations, Exchange tr: 1
  Number of Chromosome Aberrations, Isochromatid b/f: 3
  Total Number of CA: 14 ***^,###
VH10 cells; [11]
  Number of Aberrant Metaphases: 11 **^,###
  Number of Chromosome Aberrations, Chromatid b/f: 8
  Number of Chromosome Aberrations, Chromatid g: 3
  Number of Chromosome Aberrations, Exchange dic: 1
  Number of Chromosome Aberrations, Exchange tr: 2
  Total Number of CA: 11 **^,###
VH10 cells; HF pretreatment 24 h, then cisPt 0.75 µM
  amount of aberrant metaphases and chromosome aberrations: significant decrease
Human lymphocytes
  percentage of damaged DNA vs positive control (zeocin): significantly decreased the percentage of damaged DNA
